Experimental data as given in ChEMBL document CHEMBL1201862, “PubChem BioAssay data set” (2004).
Blank lines part the entries; values can stand above or below the compound they belong to. Activity calls are given as the source filed them.

Columns and labels:
[1] = molecular target: T1, Peroxisome proliferator-activated receptor gamma (Homo sapiens, UniProt P37231); test: PPARg transcriptional activation, reporter cells – cell-based, luminescence, assay provider, dose response (AID 504447); type: functional
T1 sequence (P37231 whole entry): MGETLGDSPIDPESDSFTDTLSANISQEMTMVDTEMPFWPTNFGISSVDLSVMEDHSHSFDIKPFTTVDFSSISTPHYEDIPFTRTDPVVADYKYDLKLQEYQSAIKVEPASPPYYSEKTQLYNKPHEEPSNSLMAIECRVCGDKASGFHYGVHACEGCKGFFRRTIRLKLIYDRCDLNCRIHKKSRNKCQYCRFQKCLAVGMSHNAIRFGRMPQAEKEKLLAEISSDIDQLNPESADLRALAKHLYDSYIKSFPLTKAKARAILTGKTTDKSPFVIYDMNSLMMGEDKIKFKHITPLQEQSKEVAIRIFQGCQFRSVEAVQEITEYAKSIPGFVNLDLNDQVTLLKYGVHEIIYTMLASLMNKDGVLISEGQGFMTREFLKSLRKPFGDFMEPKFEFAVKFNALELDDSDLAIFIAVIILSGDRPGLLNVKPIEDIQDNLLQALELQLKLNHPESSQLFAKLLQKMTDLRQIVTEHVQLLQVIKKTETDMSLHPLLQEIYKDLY

[2] = molecular target: T1, Peroxisome proliferator-activated receptor gamma; test: competitive ligand displacement at PPARg – biochemical, TR-FRET, LanthaScreen, PPARg partial agonist project, dose response (AID 504446)
[3] = molecular target: T1, Peroxisome proliferator-activated receptor gamma; test: competitive ligand displacement at PPARg – biochemical, fluorescence polarization, PolarScreen, PPARg partial agonist project, dose response (AID 504453)
[4] = molecular target: T2, Zinc finger protein mex-5 (Caenorhabditis elegans, UniProt Q9XUB2); test: potency of MEX-5 RNA-binding blockers – biochemical, C. elegans, fluorescence polarization, dose response (AID 1960)
T2 sequence (Q9XUB2 whole entry): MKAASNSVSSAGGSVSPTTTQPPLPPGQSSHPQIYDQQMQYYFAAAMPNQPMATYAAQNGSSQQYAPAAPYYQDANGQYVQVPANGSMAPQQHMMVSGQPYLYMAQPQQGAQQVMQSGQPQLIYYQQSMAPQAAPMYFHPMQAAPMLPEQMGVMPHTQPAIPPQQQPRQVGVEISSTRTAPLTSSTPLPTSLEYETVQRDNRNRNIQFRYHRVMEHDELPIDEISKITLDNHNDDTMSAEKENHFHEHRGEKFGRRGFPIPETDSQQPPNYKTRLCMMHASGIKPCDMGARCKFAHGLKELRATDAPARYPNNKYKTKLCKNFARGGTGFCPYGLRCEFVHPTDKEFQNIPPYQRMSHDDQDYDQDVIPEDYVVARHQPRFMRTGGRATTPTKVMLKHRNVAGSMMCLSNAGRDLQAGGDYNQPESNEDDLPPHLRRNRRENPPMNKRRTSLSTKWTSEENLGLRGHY

[5] = molecular target: T3, Corticotropin-releasing factor receptor 2/Corticotropin-releasing factor-binding protein (Homo sapiens, UniProt P24387+Q13324); test: activators of CRF receptor 2 with binding protein – uHTS hits, confirmation (AID 602473); type: functional; conditions: read-out: EC50_Mean
T3 sequence (Q13324 whole entry): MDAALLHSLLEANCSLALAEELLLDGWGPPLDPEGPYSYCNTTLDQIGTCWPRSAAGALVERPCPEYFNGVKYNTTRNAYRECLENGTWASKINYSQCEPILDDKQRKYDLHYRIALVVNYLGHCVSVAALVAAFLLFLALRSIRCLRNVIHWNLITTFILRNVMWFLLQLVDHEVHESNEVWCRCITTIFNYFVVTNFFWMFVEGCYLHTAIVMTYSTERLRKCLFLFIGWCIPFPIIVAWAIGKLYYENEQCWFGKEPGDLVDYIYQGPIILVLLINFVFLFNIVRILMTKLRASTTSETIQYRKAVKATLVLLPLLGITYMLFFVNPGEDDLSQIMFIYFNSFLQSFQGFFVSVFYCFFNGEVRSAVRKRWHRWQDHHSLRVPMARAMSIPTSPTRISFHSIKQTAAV
T3 sequence (P24387 whole entry): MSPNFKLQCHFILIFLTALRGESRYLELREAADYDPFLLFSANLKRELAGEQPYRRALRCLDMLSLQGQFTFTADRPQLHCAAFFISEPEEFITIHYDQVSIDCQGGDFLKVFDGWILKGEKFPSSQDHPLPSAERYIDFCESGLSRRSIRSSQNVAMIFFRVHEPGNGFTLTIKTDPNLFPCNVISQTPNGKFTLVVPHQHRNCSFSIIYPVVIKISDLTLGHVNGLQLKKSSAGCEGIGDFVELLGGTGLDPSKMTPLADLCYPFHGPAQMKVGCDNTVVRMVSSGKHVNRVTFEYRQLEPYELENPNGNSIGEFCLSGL

Ion channel NompC = Ion channel NompC (Danio rerio, UniProt Q7T1G6); test: Dose response cell-based high-throughput screening assay for agonists of the transient receptor potential channel N1 (TRPN1). [Related pubchem assays (depositor defined):AID1424, AID1448]; type: functional
[6] = molecular target: T4, RNA-binding protein pos-1 (Caenorhabditis elegans, UniProt G5EF15); test: disruptors of C. elegans POS-1 RNA interaction – biochemical, fluorescence polarization, dose response (AID 1964);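 further: purified POS-1 fused to maltose binding protein made in E. coli; potency of compounds blocking POS-1 binding to fluorescent RNA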
T4 sequence (G5EF15 whole entry): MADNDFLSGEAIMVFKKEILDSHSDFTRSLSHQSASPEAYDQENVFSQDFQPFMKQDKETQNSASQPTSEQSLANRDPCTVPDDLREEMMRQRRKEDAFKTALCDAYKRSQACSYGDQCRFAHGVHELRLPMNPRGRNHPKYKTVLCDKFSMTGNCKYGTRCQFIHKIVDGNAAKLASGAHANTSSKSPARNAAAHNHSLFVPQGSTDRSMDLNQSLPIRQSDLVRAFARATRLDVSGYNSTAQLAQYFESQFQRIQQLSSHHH

Mucolipin-3 = Mucolipin-3 (Homo sapiens, UniProt Q8TDD5); test: Fluorescence counterscreen assay for […] agonists: dose response cell-based high-throughput screening assay to identify agonists of the transient receptor potential channel ML3 (TRPML3). [Related pubchem assays: 1424, 1448 ]; type: functional
Cannabinoid receptor 2 [7] = molecular target: T5, Cannabinoid receptor 2 (Homo sapiens, UniProt P34972); test: SAR analysis of antagonists of the Cannabinoid Receptor 2 using an Image-Based Assay - Set 3. [Related pubchem assays (depositor defined):AID2013, AID2026]; type: functional
[8] = molecular target: T6, G-protein coupled receptor 35 (Homo sapiens, UniProt Q9HC97); test: SAR analysis of Agonists of the GPR35 Receptor using an Image-Based Assay - Set 4. [Related pubchem assays (depositor defined):AID2013, AID2026]; type: functional
Cannabinoid receptor 2 [9] = molecular target: T5, Cannabinoid receptor 2; test: SAR analysis of agonists of the Cannabinoid Receptor 2 using an Image-Based Assay - Set 3. [Related pubchem assays (depositor defined):AID2013, AID2026]; type: functional
Cannabinoid receptor 1 [10] = molecular target: T7, Cannabinoid receptor 1 (Homo sapiens, UniProt P21554); test: SAR analysis of antagonists of the Cannabinoid Receptor 1 using an Image-Based Assay - Set 4. [Related pubchem assays (depositor defined):AID2013, AID2026]; type: functional
[11] = molecular target: G-protein coupled receptor 55 (Homo sapiens, UniProt Q9Y2T6); test: SAR Analysis of Selective Antagonists of GPR55 using an Image-Based Assay - Set 4. [Related pubchem assays (depositor defined):AID2013, AID2026]; type: functional;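 further: antagonism of response to 5 µM lysophosphatidylinositol agonist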
Cannabinoid receptor 1 [12] = molecular target: T7, Cannabinoid receptor 1; test: SAR analysis of agonists of the Cannabinoid Receptor 1 using an Image-Based Assay - Set 4. [Related pubchem assays (depositor defined):AID2013, AID2026]; type: functional
[13] = molecular target: T6, G-protein coupled receptor 35; test: SAR analysis of Antagonists of the GPR35 Receptor using an Image-Based Assay - Set 6. [Related pubchem assays (depositor defined):AID2013, AID2026]; type: functional
Mu-type opioid receptor [14] = molecular target: T8, Mu-type opioid receptor (Homo sapiens, UniProt P35372); test: mu opioid receptor blockers – image-based, SAR follow-up (AID 2420); type: functional;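 further: compounds added before stimulation of receptor with agonist DAMGO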
Mu-type opioid receptor [15] = molecular target: T8, Mu-type opioid receptor; test: mu opioid receptor activators, image-based, SAR follow-up (AID 2352); type: functional
[16] = molecular target: T9, Delta-type opioid receptor (Homo sapiens, UniProt P41143); test: delta opioid receptor blockers – image-based, SAR follow-up (AID 2357); type: functional
[17] = molecular target: T10, Kappa-type opioid receptor (Homo sapiens, UniProt P41145); test: SAR analysis of small molecule agonists of the kappa opioid receptor via a luminescent beta-arrestin assay. [Related pubchem assays (depositor defined):AID1777, AID1786, AID1966, AID2133, AID2136, AID2348, AID2352, AID2357, AID2359, AID2370, AID2420, AID2478, AID2491, AID2492, AID2493, AID2497, AID2498, AID2500, AID449737, AID488822, AID488842]; type: functional
[18] = molecular target: T10, Kappa-type opioid receptor; test: kappa opioid receptor blockers, image-based, SAR follow-up (AID 2348); type: functional
[19] = molecular target: T9, Delta-type opioid receptor; test: DOR agonists, SAR follow-up, image-based (AID 2370); type: functional

T9 sequence (P41143 whole entry): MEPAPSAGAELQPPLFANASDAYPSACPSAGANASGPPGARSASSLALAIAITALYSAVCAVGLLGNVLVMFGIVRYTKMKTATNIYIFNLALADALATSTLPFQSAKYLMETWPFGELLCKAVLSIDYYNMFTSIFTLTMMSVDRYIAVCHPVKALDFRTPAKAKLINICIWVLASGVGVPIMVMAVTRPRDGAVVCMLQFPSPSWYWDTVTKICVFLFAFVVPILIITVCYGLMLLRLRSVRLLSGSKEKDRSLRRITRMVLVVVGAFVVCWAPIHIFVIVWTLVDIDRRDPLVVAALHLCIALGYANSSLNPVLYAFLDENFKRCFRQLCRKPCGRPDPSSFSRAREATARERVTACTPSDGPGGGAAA
T5 sequence (P34972 whole entry): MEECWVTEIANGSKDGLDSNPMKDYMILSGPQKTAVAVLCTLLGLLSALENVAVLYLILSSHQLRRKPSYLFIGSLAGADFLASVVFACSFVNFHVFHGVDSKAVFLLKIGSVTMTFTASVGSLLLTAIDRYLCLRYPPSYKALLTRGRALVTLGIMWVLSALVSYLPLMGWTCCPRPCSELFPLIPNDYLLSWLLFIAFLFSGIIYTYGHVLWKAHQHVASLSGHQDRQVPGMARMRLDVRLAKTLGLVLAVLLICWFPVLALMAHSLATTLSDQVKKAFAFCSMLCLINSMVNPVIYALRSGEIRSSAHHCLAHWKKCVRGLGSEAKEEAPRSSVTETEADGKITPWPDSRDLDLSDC
T6 sequence (Q9HC97 whole entry): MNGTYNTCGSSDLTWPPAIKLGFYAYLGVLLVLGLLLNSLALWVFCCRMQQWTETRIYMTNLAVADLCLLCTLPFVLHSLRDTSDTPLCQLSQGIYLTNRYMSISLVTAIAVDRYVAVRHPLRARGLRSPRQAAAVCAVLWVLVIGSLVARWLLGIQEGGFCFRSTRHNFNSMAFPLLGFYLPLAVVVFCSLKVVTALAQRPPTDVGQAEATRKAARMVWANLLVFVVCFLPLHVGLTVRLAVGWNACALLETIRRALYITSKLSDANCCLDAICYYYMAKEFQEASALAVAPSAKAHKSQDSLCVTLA
T10 sequence (P41145 whole entry): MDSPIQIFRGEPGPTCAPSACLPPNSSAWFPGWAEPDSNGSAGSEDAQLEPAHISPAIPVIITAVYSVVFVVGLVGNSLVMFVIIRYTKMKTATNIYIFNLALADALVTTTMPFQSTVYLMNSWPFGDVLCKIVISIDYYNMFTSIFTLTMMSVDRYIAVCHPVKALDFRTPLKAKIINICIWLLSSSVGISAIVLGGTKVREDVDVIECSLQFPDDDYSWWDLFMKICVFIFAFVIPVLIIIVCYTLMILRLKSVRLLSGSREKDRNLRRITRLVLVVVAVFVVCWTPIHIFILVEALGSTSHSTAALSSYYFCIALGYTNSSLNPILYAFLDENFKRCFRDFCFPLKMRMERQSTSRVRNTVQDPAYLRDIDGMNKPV
T7 sequence (P21554 whole entry): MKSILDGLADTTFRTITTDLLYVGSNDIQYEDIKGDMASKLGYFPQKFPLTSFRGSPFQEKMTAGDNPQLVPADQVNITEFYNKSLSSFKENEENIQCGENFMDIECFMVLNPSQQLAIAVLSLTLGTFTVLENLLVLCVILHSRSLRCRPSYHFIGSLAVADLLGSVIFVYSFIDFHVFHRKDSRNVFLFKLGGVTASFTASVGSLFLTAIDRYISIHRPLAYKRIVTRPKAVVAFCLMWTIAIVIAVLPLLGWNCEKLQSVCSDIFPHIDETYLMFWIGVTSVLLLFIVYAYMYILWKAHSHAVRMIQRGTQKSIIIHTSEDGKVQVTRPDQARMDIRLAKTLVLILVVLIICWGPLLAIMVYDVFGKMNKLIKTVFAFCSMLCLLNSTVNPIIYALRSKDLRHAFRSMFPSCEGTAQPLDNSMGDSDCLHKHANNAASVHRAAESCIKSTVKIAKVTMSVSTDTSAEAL
T8 sequence (P35372 whole entry): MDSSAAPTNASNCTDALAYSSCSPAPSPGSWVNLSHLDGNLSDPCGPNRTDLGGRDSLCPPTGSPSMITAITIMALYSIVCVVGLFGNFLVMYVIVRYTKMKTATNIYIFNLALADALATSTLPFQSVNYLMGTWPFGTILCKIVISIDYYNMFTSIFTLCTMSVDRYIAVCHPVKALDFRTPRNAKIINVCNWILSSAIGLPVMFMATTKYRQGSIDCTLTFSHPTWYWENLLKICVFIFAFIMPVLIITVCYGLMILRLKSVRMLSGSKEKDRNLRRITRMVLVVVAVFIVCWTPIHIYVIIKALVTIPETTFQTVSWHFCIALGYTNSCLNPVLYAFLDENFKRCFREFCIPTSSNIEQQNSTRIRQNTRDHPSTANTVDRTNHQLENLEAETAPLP
Ion channel NompC, sequence (Q7T1G6 whole entry, the tested form may be a part): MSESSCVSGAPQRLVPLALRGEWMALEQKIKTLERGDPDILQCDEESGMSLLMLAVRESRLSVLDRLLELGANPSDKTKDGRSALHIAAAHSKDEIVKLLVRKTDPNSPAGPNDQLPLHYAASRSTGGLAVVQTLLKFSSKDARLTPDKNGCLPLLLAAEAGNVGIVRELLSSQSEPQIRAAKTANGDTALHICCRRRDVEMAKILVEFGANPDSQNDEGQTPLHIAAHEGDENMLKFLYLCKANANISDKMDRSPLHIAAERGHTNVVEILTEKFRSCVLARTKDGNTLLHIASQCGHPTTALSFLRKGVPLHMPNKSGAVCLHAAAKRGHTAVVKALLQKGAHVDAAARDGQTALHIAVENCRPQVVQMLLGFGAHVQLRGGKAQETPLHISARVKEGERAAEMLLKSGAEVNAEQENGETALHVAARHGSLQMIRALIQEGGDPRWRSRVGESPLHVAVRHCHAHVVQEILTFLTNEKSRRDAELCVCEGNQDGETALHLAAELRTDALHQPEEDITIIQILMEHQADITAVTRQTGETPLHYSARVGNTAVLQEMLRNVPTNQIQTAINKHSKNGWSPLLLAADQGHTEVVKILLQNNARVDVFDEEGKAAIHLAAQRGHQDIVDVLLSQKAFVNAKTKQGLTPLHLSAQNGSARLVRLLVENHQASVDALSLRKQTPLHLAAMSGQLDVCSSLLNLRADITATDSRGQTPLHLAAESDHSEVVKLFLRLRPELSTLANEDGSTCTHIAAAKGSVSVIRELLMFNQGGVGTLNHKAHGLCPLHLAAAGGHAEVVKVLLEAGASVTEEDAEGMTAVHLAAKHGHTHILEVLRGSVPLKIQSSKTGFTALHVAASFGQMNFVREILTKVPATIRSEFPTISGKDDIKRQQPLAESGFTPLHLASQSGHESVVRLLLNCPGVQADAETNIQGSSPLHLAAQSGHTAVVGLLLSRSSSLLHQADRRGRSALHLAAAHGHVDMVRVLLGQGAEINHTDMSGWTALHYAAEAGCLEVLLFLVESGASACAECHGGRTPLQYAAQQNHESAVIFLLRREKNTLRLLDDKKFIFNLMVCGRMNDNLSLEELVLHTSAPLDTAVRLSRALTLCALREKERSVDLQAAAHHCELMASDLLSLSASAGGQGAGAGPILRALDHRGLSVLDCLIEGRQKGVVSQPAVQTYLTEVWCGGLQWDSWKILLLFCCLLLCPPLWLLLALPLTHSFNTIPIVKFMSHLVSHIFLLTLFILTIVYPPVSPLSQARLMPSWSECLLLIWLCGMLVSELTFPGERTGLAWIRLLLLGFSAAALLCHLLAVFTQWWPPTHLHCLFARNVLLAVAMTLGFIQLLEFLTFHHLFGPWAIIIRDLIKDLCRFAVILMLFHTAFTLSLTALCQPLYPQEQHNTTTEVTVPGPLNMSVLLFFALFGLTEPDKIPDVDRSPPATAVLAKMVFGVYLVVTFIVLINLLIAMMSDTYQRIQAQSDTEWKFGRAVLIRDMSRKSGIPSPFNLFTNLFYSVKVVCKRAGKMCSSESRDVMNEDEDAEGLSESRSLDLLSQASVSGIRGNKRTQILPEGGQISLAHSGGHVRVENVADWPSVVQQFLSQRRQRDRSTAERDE
Mucolipin-3, sequence (Q8TDD5 whole entry): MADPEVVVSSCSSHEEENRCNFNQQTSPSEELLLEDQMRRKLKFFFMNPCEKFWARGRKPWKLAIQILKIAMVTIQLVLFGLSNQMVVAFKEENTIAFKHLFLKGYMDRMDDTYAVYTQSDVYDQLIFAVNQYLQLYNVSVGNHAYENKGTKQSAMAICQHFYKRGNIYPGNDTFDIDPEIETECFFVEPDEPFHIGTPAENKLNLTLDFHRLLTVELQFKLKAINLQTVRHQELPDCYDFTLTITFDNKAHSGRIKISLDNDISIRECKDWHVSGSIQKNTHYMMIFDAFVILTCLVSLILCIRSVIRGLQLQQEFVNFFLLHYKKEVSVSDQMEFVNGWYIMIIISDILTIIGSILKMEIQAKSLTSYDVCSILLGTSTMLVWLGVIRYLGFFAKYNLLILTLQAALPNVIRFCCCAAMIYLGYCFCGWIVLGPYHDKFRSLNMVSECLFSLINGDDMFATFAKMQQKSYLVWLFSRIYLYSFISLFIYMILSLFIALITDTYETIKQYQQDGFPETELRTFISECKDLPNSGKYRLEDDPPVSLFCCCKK
G-protein coupled receptor 55, sequence (Q9Y2T6 whole entry): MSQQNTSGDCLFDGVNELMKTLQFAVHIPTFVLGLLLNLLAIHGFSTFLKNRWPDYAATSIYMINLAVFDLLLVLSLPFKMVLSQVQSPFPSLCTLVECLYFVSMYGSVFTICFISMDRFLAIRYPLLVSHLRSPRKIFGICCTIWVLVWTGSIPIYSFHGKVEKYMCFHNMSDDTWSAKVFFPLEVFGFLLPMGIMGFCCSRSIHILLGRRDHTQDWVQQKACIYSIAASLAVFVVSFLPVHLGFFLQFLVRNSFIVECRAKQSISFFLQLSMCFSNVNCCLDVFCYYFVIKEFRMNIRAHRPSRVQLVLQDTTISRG

EC50 [1]: 5 µM (active)
IC50 [2]: 1.2 µM (active)
IC50 [3]: 5 µM (active)
Compound: COc1ccc2nc(N3C(=O)C(O)=C(C(=O)c4ccco4)C3c3ccc(C)o3)sc2c1 (stereo unspecified)

EC50 [4]: 74.2 µM (inconclusive)
EC50 [5]: 9.14 µM (active)
EC50 (Ion channel NompC): > 9.97 µM (inactive)
EC50 [6]: > 300 µM (not active)
EC50 (Mucolipin-3): > 9.97 µM (not active)
Compound: Nc1c(C(=O)c2ccc(Cl)cc2)sc2nsc(SCCN3CCOCC3)c12

IC50 (Cannabinoid receptor 2 [7]): > 32 µM (inactive)
EC50 [8]: > 32 µM (inactive)
EC50 (Cannabinoid receptor 2 [9]): 3.61 µM (active)
IC50 (Cannabinoid receptor 1 [10]): > 32 µM (inactive)
IC50 [11]: > 32 µM (inactive)
EC50 (Cannabinoid receptor 1 [12]): > 32 µM (inactive)
IC50 [13]: > 32 µM (inactive)
Compound: N=c1c(C(=O)NCCc2ccccc2)cc2c(=O)n3ccccc3nc2n1C1CCCC1

IC50 (Mu-type opioid receptor [14]): > 32 µM (inactive)
EC50 (Mu-type opioid receptor [15]): > 32 µM (inactive)
IC50 [16]: > 32 µM (inactive)
EC50 [17]: > 10 µM (inactive)
IC50 [18]: > 32 µM (inactive)
EC50 [19]: > 32 µM (inactive)
Compound: COc1ccc(CN(Cc2ccccn2)C(=O)CN2C(=O)COc3ccccc32)cc1
